This note sets out measurements from publication PMC6359137 (2019).

This test deals with AFM1 aptamer (DNA, aptamer) ACTGCTAGAGATTTTCCACAT
Kind of test: strand displacement, Exo III-amplified NMM fluorescence. As to conditions: K+ 75 mM, Mg2+ 10 mM; C-strand (S2) displaced; highest tested 1 ng mL^-1; 37 °C; compared with blank milk.

The structures appear in SMILES notation.

`C[C@@H]1Cc2c(Cl)cc(C(=O)N[C@@H](Cc3ccccc3)C(=O)O)c(O)c2C(=O)O1`: the binding entry is “no”.
